Assay results taken from patent US10308618B2, “Blue light cutting optical material comprising a benzotriazole UV absorber” (ESSILOR INTERNATIONAL, priority 2016, dated 2019).

Assays:
[1] = Solubilization of the benzotriazole UV absorber in the ISO monomer; assay type: physicochemical; conditions: in isocyanate monomer, compared with comparative benzotriazole VII
Description: For polythiourethane matrix, solubility during processing and compatibility of inventive and comparative benzotriazoles were assessed in two stages. First, initial solubilization of the benzotriazole UV absorber in the isocyanate monomer was assessed.

[2] = Transmission spectra: transmittance and light cut-off wavelength; assay type: physicochemical
Source text: The light cut-off wavelength of the optical material is preferably higher than or equal to 400 nm, more preferably higher than or equal to 405 nm, and even more preferably higher than or equal to 410 nm. It is preferably lower than 465 nm, more preferably lower than 450 nm. In the present disclosure, the light cut-off wavelength is defined as the wavelength below which light transmission becomes lower than 1%. In other words, it is the highest wavelength for which the transmittance is lower than 1%. The higher the light cut-off wavelength, the better the blue light cutting properties.
In the present description, unless otherwise specified, optical transmittances/transmissions are measured at the center of the optical article for a thickness ranging from 0.7 to 2 mm, preferably 2 mm, at normal incidence. As used herein, optical transmittance within a wavelength range is an average of light transmitted within this range and is not weighted according to the sensitivity of the eye at each wavelength of the range, unless otherwise specified. Last, optical transmittance is measured for optical articles having no coatings, in particular no antireflective coatings.
The light cut-off wavelength was determined from the transmission spectra, which are shown on FIGS. 1 and 2. […]

Molecule | Dissolution properties [1] | optical transmittance for each light wavelength ranging from 280 to 400 nm ([2]; 2-mm thick layer of material) | T (%) at 430 nm ([2]; 2 mm thick material, 430 nm)
CCCCCCCCOC(=O)CCc1cc(-n2nc3ccc(Cl)cc3n2)c(O)c(C(C)(C)C)c1 [Benzotriazole IV, n-octyl-3-[3-tert-butyl-4-hydroxy-5-(5-chloro-2H-benzotriazol-2-yl)phenyl] propionate] | improved dissolution properties |  | 
octyl-3-[3-tert-butyl-4-hydroxy-5-(2H-benzotriazol-2-yl)-phenyl] propionate branched and linear alkyl esters [Eversorb® 82] |  | lower than 1% | higher than 65%
